# Starred links: 1 amine or outer side, 2 acyl side, 3 side chain; linkers in the order of their positions; H or OH if unused. Positions of bridges follow the written chain, without caps; N, C: chain ends. Non-standard residues stand in square brackets, D forms with d. Residues, ends and D or L forms follow the SMILES beside them. *: point of attachment. NH(CH2)3NH(O2Oc(DOTA)) = O=C(O)CN1CCN(CC(=O)O)CCN(CC(=O)NCCOCCOCC(=O)NCCCN*)CCN(CC(=O)O)CC1; X3 = O=C(O)CN1CCN(CC(=O)O)CCN(CC(=O)NCCCOCCOCCOCCCN*)CCN(CC(=O)O)CC1; DOTA = O=C(O)CN1CCN(CC(=O)O)CCN(CC(=O)*)CCN(CC(=O)O)CC1; X68 = CC1(C(=O)Nc2cccc(C[C@H](N[*:1])C(=O)[*:2])c2)CC1; X43 = CCC(=O)Nc1cccc(C[C@H](N[*:1])C(=O)[*:2])c1; Phe(4-NH2) = Nc1ccc(C[C@H](N)C(=O)O)cc1; Cyclopentanecarbonyl = O=C(C1CCCC1)*; mXylylene = c1cc(C[*:1])cc(C[*:2])c1; Orn(Me2) = CN(C)CCC[C@H](N)C(=O)O; Trx = NC[C@H]1CC[C@H](C(=O)O)CC1; X2 = O=C(CN1CCC(N[*:1])CC1)[*:2]; tBuAla = CC(C)(C)C[C@H](N)C(=O)O; Suc = O=C(CCC(=O)[*:2])[*:1]; Isovaleryl = CC(C)CC(=O)*; PhAc = O=C(Cc1ccccc1)*; X70 = N#Cc1ccc(CN*)cc1; Bn = c1ccc(C*)cc1; Sar = CNCC(=O)O
# Molecular target: T1, CAIX-expressing human HT-29 colorectal cancer cells (Homo sapiens, UniProt Q16790)
# T1 construct: CAIX-expressing human HT-29 colorectal cancer cells; host or cells: HT-29 human colorectal cancer cells
# Assay: FACS binding assay (IC50 determination, competition with tracer 3BP-2776 or 3BP-4149)
# Conditions: not given
# Procedure, shortened: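 HT-29 cells in FACS buffer (PBS, 1% FCS) at 500.000 cells/ml were exposed to compounds competing with a labelled tracer, with biotinylated compounds detected by 1 μg/mL APC-streptavidin for 30 min on ice. APC/Cy5 median fluorescence was read by flow cytometry and IC50 derived by 4PL fit.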
row,Compound,IC50 [nM]
1,CC(C)C[C@@H]1NC(=O)[C@H](Cc2c[nH]c3ccccc23)NC(=O)[C@H](CC(=O)O)NC(=O)CNC(=O)[C@H](CCC(=O)O)NC(=O)[C@@H](NC(=O)[C@H](Cc2ccc(O)cc2)NC(=O)[C@@H](NC(=O)Cc2ccccc2)C(C)C)CSCc2cccc(c2)CSC[C@@H](C(N)=O)NC(=O)[C@H](CCC(N)=O)NC(=O)[C@H](Cc2c[nH]c3ccccc23)NC(=O)[C@H]([C@@H](C)O)NC1=O [3BP-3109] (PhAc-VYCEGDWLTWQC-NH2; linker 3-12 via mXylylene),< 10
2,CC(C)C[C@@H]1NC(=O)[C@H](Cc2c[nH]c3ccccc23)NC(=O)[C@H](Cc2ccc(OCc3ccccc3)cc2)NC(=O)[C@H]2CCCN2C(=O)[C@H](CCC(=O)O)NC(=O)[C@@H](NC(=O)[C@H](Cc2ccc(O)cc2)NC(=O)[C@@H](NC(=O)CN2CCC(NC(=O)CN3CCN(CC(=O)O)CCN(CC(=O)O)CCN(CC(=O)O)CC3)CC2)C(C)C)CSCc2cccc(c2)CSC[C@@H](C(N)=O)NC(=O)[C@H](CO)NC(=O)[C@H](Cc2c[nH]c3ccccc23)NC(=O)[C@H]([C@@H](C)O)NC1=O [3BP-4127] ({DOTA}-[X2]VYCE[dP]Y(Bn)WLTWSC-NH2; linker 4-13 via mXylylene),< 10

# Same assay, conditions: FACS binding assay, HT-29 cells, competition with tracer 3BP-2776 (10 nM, biotin-labeled), 4° C., 1 hour; read-out: pIC50 category (activity) (converted)
row,IC50 [nM],Compound
1,< 10,CC(C)C[C@@H]1NC(=O)[C@H](Cc2ccc(O)cc2)NC(=O)[C@H](CC(=O)O)NC(=O)[C@H]2CCCN2C(=O)[C@H](CCC(=O)O)NC(=O)[C@@H](NC(=O)[C@H](Cc2ccc(O)cc2)NC(=O)[C@@H](NC(=O)CN2CCC(NC(=O)CN3CCN(CC(=O)O)CCN(CC(=O)O)CCN(CC(=O)O)CC3)CC2)C(C)C)CSCc2cccc(c2)CSC[C@@H](C(N)=O)NC(=O)[C@H](CO)NC(=O)[C@H](Cc2c[nH]c3ccccc23)NC(=O)[C@H]([C@@H](C)O)NC1=O [3BP-4136] ({DOTA}-[X2]VYCE[dP]DYLTWSC-NH2; linker 4-13 via mXylylene)
2,10 to 79.4,CC(C)C[C@@H]1NC(=O)[C@H](Cc2ccc(NC(=O)C3CCCC3)cc2)NC(=O)[C@H](CC(=O)O)NC(=O)[C@H]2CCCN2C(=O)[C@H](CCC(=O)O)NC(=O)[C@@H](NC(=O)[C@H](Cc2ccc(O)cc2)NC(=O)[C@@H](NC(=O)CN2CCC(NC(=O)CN3CCN(CC(=O)O)CCN(CC(=O)O)CCN(CC(=O)O)CC3)CC2)C(C)C)CSCc2cccc(c2)CSC[C@@H](C(N)=O)NC(=O)[C@H](CO)NC(=O)[C@H](Cc2c[nH]c3ccccc23)NC(=O)[C@H]([C@@H](C)O)NC1=O [3BP-4173] ({DOTA}-[X2]VYCE[dP]D[Phe(4-NH2)](Cyclopentanecarbonyl)LTWSC-NH2; linker 4-13 via mXylylene)
3,< 10,CCC(=O)Nc1cccc(C[C@@H]2NC(=O)[C@H](CC(=O)O)NC(=O)[C@H]3CCCN3C(=O)[C@H](CCC(=O)O)NC(=O)[C@@H](NC(=O)[C@H](Cc3ccc(O)cc3)NC(=O)[C@@H](NC(=O)CN3CCC(NC(=O)CN4CCN(CC(=O)O)CCN(CC(=O)O)CCN(CC(=O)O)CC4)CC3)C(C)C)CSCc3cccc(c3)CSC[C@@H](C(N)=O)NC(=O)[C@H](CO)NC(=O)[C@H](Cc3c[nH]c4ccccc34)NC(=O)[C@H]([C@@H](C)O)NC(=O)[C@H](CC(C)C)NC2=O)c1 [3BP-4235] ({DOTA}-[X2]VYCE[dP]D[X43]LTWSC-NH2; linker 4-13 via mXylylene)
4,< 10,CC(C)C[C@@H]1NC(=O)[C@H](Cc2cccc(NC(=O)C3(C)CC3)c2)NC(=O)[C@H](CC(=O)O)NC(=O)[C@H]2CCCN2C(=O)[C@H](CCC(=O)O)NC(=O)[C@@H](NC(=O)[C@H](Cc2ccc(O)cc2)NC(=O)[C@@H](NC(=O)CN2CCC(NC(=O)CN3CCN(CC(=O)O)CCN(CC(=O)O)CCN(CC(=O)O)CC3)CC2)C(C)C)CSCc2cccc(c2)CSC[C@@H](C(N)=O)NC(=O)[C@H](CO)NC(=O)[C@H](Cc2c[nH]c3ccccc23)NC(=O)[C@H]([C@@H](C)O)NC1=O [3BP-4234] ({DOTA}-[X2]VYCE[dP]D[X68]LTWSC-NH2; linker 4-13 via mXylylene)
5,< 10,CC(C)C[C@@H]1NC(=O)[C@H](Cc2c[nH]c3ccccc23)NC(=O)[C@H](CC(=O)O)NC(=O)[C@H]2CCCN2C(=O)[C@H](CCC(=O)O)NC(=O)[C@@H](NC(=O)[C@H](Cc2ccc(O)cc2)NC(=O)[C@@H](NC(=O)CN2CCC(NC(=O)CN3CCN(CC(=O)O)CCN(CC(=O)O)CCN(CC(=O)O)CC3)CC2)C(C)C)CSCc2cccc(c2)CSC[C@@H](C(N)=O)NC(=O)[C@H](CCCN(C)C)NC(=O)[C@H](Cc2c[nH]c3ccccc23)NC(=O)[C@H]([C@@H](C)O)NC1=O [3BP-4100] ({DOTA}-[X2]VYCE[dP]DWLTW[Orn(Me2)]C-NH2; linker 4-13 via mXylylene)

# Same assay, conditions: FACS binding assay, HT-29 cells, competition with tracer 3BP-4149 (3 nM, Cy5-labeled), 4° C., 1 hour; read-out: pIC50 category (activity) (converted)
row,IC50 [nM],Compound
1,10 to 79.4,CC(C)C[C@@H]1NC(=O)[C@H](Cc2c[nH]c3ccccc23)NC(=O)[C@H](CCC(=O)NCc2ccc(C#N)cc2)NC(=O)[C@H]2CCCN2C(=O)[C@H](CCC(=O)O)NC(=O)[C@@H](NC(=O)[C@H](Cc2ccc(O)cc2)NC(=O)[C@@H](NC(=O)CN2CCC(NC(=O)CN3CCN(CC(=O)O)CCN(CC(=O)O)CCN(CC(=O)O)CC3)CC2)C(C)C)CSCc2cccc(c2)CSC[C@@H](C(N)=O)NC(=O)[C@H](CO)NC(=O)[C@H](Cc2c[nH]c3ccccc23)NC(=O)[C@H]([C@@H](C)O)NC1=O [3BP-4340] ({DOTA}-[X2]VYCE[dP]E(X70)WLTWSC-NH2; linker 4-13 via mXylylene)

# Same assay, conditions: FACS competition on HT-29 cells, Tracer ID 3BP-2776 (10 nM, biotin-labeled), 4° C., 1 hour; read-out: pIC50 category (activity) (converted)
row,IC50 [nM],Compound
1,< 10,CC(C)[C@H](NC(=O)[C@H]1CC[C@H](CNC(=O)CN2CCN(CC(=O)O)CCN(CC(=O)O)CCN(CC(=O)O)CC2)CC1)C(=O)N[C@@H](Cc1ccc(O)cc1)C(=O)N[C@H]1CSCc2cccc(c2)CSC[C@@H](C(N)=O)NC(=O)[C@H](C)NC(=O)[C@H](Cc2c[nH]c3ccccc23)NC(=O)[C@H]([C@@H](C)O)NC(=O)[C@H](CC(C)(C)C)NC(=O)[C@H](Cc2c[nH]c3ccccc23)NC(=O)[C@H](CC(=O)O)NC(=O)[C@H]2CCCN2C(=O)[C@H](CCC(=O)O)NC1=O [3BP-3431] ({DOTA-Trx}-VYCE[dP]DW[tBuAla]TWAC-NH2; linker 3-12 via mXylylene)
2,10 to 79.4,CC(=O)N[C@H](C(=O)N[C@@H](Cc1ccc(O)cc1)C(=O)N[C@H]1CSCc2cccc(c2)CSC[C@@H](C(N)=O)NC(=O)[C@H](CCC(N)=O)NC(=O)[C@H](Cc2c[nH]c3ccccc23)NC(=O)[C@H](C)NC(=O)[C@H](CC(C)C)NC(=O)[C@H](Cc2c[nH]c3ccccc23)NC(=O)[C@H](CC(=O)O)NC(=O)CNC(=O)[C@H](CCC(=O)O)NC1=O)C(C)C [3BP-3056] (Ac-VYCEGDWLAWQC-NH2; linker 3-12 via mXylylene)
3,10 to 79.4,CC(C)C[C@@H]1NC(=O)[C@H](Cc2c[nH]c3ccccc23)NC(=O)[C@H](CC(=O)O)NC(=O)CN(C)C(=O)[C@H](CCC(=O)O)NC(=O)[C@@H](NC(=O)[C@H](Cc2ccc(O)cc2)NC(=O)[C@@H](NC(=O)CCC(=O)NCCCOCCOCCOCCCNC(=O)CN2CCN(CC(=O)O)CCN(CC(=O)O)CCN(CC(=O)O)CC2)C(C)C)CSCc2cccc(c2)CSC[C@@H](C(N)=O)NC(=O)[C@H](C)NC(=O)[C@H](Cc2c[nH]c3ccccc23)NC(=O)[C@H]([C@@H](C)O)NC1=O [3BP-3278] ({X3-Suc}-VYCE[Sar]DWLTWAC-NH2; linker 3-12 via mXylylene)
4,< 10,CC(C)CC(=O)N[C@@H](CCC(=O)O)C(=O)N[C@H]1CSCc2cccc(c2)CSC[C@@H](C(N)=O)NC(=O)[C@H](CO)NC(=O)[C@H](Cc2c[nH]c3ccccc23)NC(=O)[C@H]([C@@H](C)O)NC(=O)[C@H](CC(C)C)NC(=O)[C@H](Cc2c[nH]c3ccccc23)NC(=O)[C@H](CC(=O)O)NC(=O)[C@H]2CCCN2C(=O)[C@H](CCC(=O)O)NC1=O [3BP-3728] (Isovaleryl-ECE[dP]DWLTWSC-NH2; linker 2-11 via mXylylene)
5,10 to 79.4,CC(C)CC(=O)N[C@@H](CCC(=O)O)C(=O)N[C@H]1CSCc2cccc(c2)CSC[C@@H](C(N)=O)NC(=O)[C@H](CCC(=O)NCCCNC(=O)COCCOCCNC(=O)CN2CCN(CC(=O)O)CCN(CC(=O)O)CCN(CC(=O)O)CC2)NC(=O)[C@H](Cc2c[nH]c3ccccc23)NC(=O)[C@H]([C@@H](C)O)NC(=O)[C@H](CC(C)C)NC(=O)[C@H](Cc2c[nH]c3ccccc23)NC(=O)[C@H](CC(=O)O)NC(=O)[C@H]2CCCN2C(=O)[C@H](CCC(=O)O)NC1=O [3BP-3872] (Isovaleryl-ECE[dP]DWLTWE(NH(CH2)3NH(O2Oc(DOTA)))C-NH2; linker 2-11 via mXylylene)
6,< 10,CC(=O)N[C@H](C(=O)N[C@@H](CO)C(=O)N[C@H]1CSCc2cccc(c2)CSC[C@@H](C(N)=O)NC(=O)[C@H](CO)NC(=O)[C@H](Cc2c[nH]c3ccccc23)NC(=O)[C@H]([C@@H](C)O)NC(=O)[C@H](CC(C)C)NC(=O)[C@H](Cc2c[nH]c3ccccc23)NC(=O)[C@H](CC(=O)O)NC(=O)[C@H]2CCCN2C(=O)[C@H](CCC(=O)O)NC1=O)C(C)C [3BP-3571] (Ac-VSCE[dP]DWLTWSC-NH2; linker 3-12 via mXylylene)
7,< 10,CC(=O)N[C@H](C(=O)N[C@@H](Cc1ccc(O)cc1)C(=O)N[C@H]1CSCc2cccc(c2)CSC[C@@H](C(N)=O)NC(=O)[C@H](CO)NC(=O)[C@H](Cc2c[nH]c3ccccc23)NC(=O)[C@H]([C@@H](C)O)NC(=O)[C@H](CC(C)C)NC(=O)[C@H](Cc2c[nH]c3ccccc23)NC(=O)[C@H](CC(=O)O)NC(=O)[C@H]2CCCN2C(=O)[C@H](CCC(=O)O)NC1=O)[C@@H](C)O [3BP-3567] (Ac-TYCE[dP]DWLTWSC-NH2; linker 3-12 via mXylylene)
8,< 10,CC(C)CC(=O)N[C@@H](Cc1ccc(O)cc1)C(=O)N[C@H]1CSCc2cccc(c2)CSC[C@@H](C(N)=O)NC(=O)[C@H](CO)NC(=O)[C@H](Cc2c[nH]c3ccccc23)NC(=O)[C@H]([C@@H](C)O)NC(=O)[C@H](CC(C)C)NC(=O)[C@H](Cc2c[nH]c3ccccc23)NC(=O)[C@H](CC(=O)O)NC(=O)[C@H]2CCCN2C(=O)[C@H](CCC(=O)O)NC1=O [3BP-3569] (Isovaleryl-YCE[dP]DWLTWSC-NH2; linker 2-11 via mXylylene)

# — patent US20250339569A1, “CARBONIC ANHYDRASE IX LIGANDS” (priority 2021, published 2025)
